System: immunocompetent FVB mice
Assay: Tolerability study in immunocompetent mice
Assay type: in vivo
Excerpt: Five- to six-week-old immunocompetent, female FVB mice were purchased from Charles River Laboratories (Sulzfeld, Germany). After an acclimatization period of at least 7 days, the mice (n = 5 per group) were intravenously injected with 30 kBq [^225Ac]Ac-SibuDAB or 30 kBq [^225Ac]Ac-PSMA-617 and additional mice (n = 7 per group) remained untreated as controls. Mice were monitored by measuring their body mass and potential signs of pain or unease three times a week (Supplementary Material: Section S7). The mice were euthanized on Day 10, Day 28 or on Day 56, respectively, and variable parameters were assessed from blood and tissue samples.
Hematological analysis was performed using blood samples taken by cardiac puncture immediately after euthanasia. Blood and bone marrow smears were prepared and stained using the Pappenheim protocol. The assessment was carried out by a board-certified veterinary anatomic pathologist (AnaPath Services GmbH, Liestal, Switzerland). Blood plasma parameters were determined in plasma after centrifugation of blood samples obtained shortly before euthanasia (Supplementary Material: Section S7).
Tissue sections of formalin-fixed paraffin-embedded (FFPE) spleen, salivary glands and kidneys were prepared and stained with hematoxylin and eosin (H&E) by AnaPath Services GmbH (Liestal, Switzerland). The tissues were analyzed by a board certified veterinary pathologist using a pre-defined scoring system (Supplementary Material: Section S7). […]
The percentage of radioligand bound to mouse or human plasma (A bound) was plotted against the molar ratios of MSA/HSA to radioligand and fitted with a nonlinear regression curve (specific binding with Hill slope, Bmax set to 100%) using GraphPad Prism software (version 8) to obtain the half maximum binding (B 50).
Results: The results are reported in the main article.
Purpose: A tolerability study with normal, immunocompetent FVB mice was con-ducted in order to assess potential side effects to the bone marrow, spleen, salivary glands and kidneys after the application of high activities of the 225Ac-labeled PSMA radioligands.
Methods: Monitoring Body Mass and Signs of Unease: Mice were monitored by meas-uring their body mass (BM) three times a week. The body masses were expressed as the relative body mass, defined as [BMx/BM0], where BMx is the body mass in grams on a given Day x and BM0 is the body mass in grams on Day 0. Endpoint criteria, defined as (i) >15% loss in body mass, (ii) signs of unease and pain or a combination thereof based on a scoring system, were not reached in this stu dy.
Hematology: Blood cell counts were determined in blood samples taken by cardiac puncture immediately after euthanasia and collected in EDTA tubes (Microvette® 100 K3 EDTA, Sarstedt, Germany). Leukocyte, lymphocyte, erythrocyte and thrombocyte counts as well as hemoglobin and hematocrit values were determined using a hematology ana-lyzer (VetScan HM5, Abaxis, United States). Blood smears were prepared on glass slides with cardiac blood. The bone marrow was collected from the femur, diluted in FCS/H2O (2:1 v/v) and smeared onto microscopy slides using a paintbrush. The slides were stained with a May Grünwald solution and subsequently with diluted Giemsa solution using the Pappenheim method and covered with coverslips using mounting medium (Pertex).
The assessment of potential morphological ch anges of the blood cells and counting of the subgroups of leukocytes was performed by a board-certified veterinary pathologist (Ana-Path Services GmbH, Liestal, Switzerland).
Histopathological Analysis: Spleen, salivary glands and kidneys were formalin-fixed and paraffin-embedded. Tissue sections were stained with hematoxylin & eosin (H&E) […]
Blood Plasma Parameters: Blood plasma parameters were determined in plasma ob-tained from centrifuged retrobulbar blood samples collected in lithium-heparin tubes (Mi-crovette® 200 LH, SARSTEDT). The concentrations of blood urea nitrogen (BUN), alkaline […]

SMILES: O=C([O-])CN1CCN(CC(=O)[O-])CCN(CC(=O)NCC2CCC(C(=O)NC(Cc3ccc4ccccc4c3)C(=O)NCCCCC(NC(=O)NC(CCC(=O)O)C(=O)O)C(=O)O)CC2)CCN(CC(=O)[O-])CC1.[225Ac+3] (stereo not shown) [[^225Ac]Ac-PSMA-617]
- Tolerability (body mass) (30 kBq per mouse, until Day 56): well tolerated
- Kidneys: Hyperplasia/hypertrophy, tubular, incidence (Day 10, 30 kBq): 2
- Kidneys: Hyperplasia/hypertrophy, tubular, score average (Day 10, 30 kBq): 1.0
- Kidneys: Hypertrophy/hyperplasia, tubular with ectasia, incidence (Day 10, 30 kBq): 0
- Kidneys: Hypertrophy/hyperplasia, tubular with ectasia, score average (Day 10, 30 kBq): 0.0
- Kidneys: Inflammatory cells, interstitium, incidence (Day 10, 30 kBq): 0
- Kidneys: Inflammatory cells, interstitium, score average (Day 10, 30 kBq): 0.0
- Kidneys: Inflammatory cells, pelvis, incidence (Day 10, 30 kBq): 0
- Kidneys: Inflammatory cells, pelvis, score average (Day 10, 30 kBq): 0.0
- Kidneys: Mineralization, papilla, incidence (Day 10, 30 kBq): 0
- Kidneys: Mineralization, papilla, score average (Day 10, 30 kBq): 0.0
- Kidneys: Tubular basophilia, incidence (Day 10, 30 kBq): 0
- Kidneys: Tubular basophilia, score average (Day 10, 30 kBq): 0.0
- Salivary glands: Ductal hyperplasia with inflammatory cells, incidence (Day 10, 30 kBq): 0
- Salivary glands: Ductal hyperplasia with inflammatory cells, score average (Day 10, 30 kBq): 0.0
- Salivary glands: Hypertrophy acinar, sublingual, incidence (Day 10, 30 kBq): 0
- Salivary glands: Hypertrophy acinar, sublingual, score average (Day 10, 30 kBq): 0.0
- Salivary glands: Mononuclear cell foci, incidence (Day 10, 30 kBq): 1
- Salivary glands: Mononuclear cell foci, score average (Day 10, 30 kBq): 1.0
- Salivary glands: Necrosis, multifocal, serous acinar cells, incidence (Day 10, 30 kBq): two out of five
- Salivary glands: Necrosis, multifocal, serous acinar cells, score average (Day 10, 30 kBq): 1.0
- Salivary glands: Vacuolation, incidence (Day 10, 30 kBq): 0
- Salivary glands: Vacuolation, score average (Day 10, 30 kBq): 0.0
- Spleen: Extramedullary hematopoiesis, incidence (Day 10, 30 kBq): 5
- Spleen: Extramedullary hematopoiesis, score average (Day 10, 30 kBq): 1.0
- Spleen: Hyperplasia, lymphoid, incidence (Day 10, 30 kBq): 1
- Spleen: Hyperplasia, lymphoid, score average (Day 10, 30 kBq): 1.0
- Spleen: Pigment, incidence (Day 10, 30 kBq): 5
- Spleen: Pigment, score average (Day 10, 30 kBq): 1.0
- mice with relative increase of neutrophilic blasts (metamyelocytes) in peripheral blood (Day 10, 30 kBq): two out of five
- myelopoiesis in bone marrow smears (group value) (Day 10, 30 kBq): 62%
- Salivary glands: Necrosis, multifocal, serous acinar cells, incidence (Day 10, 30 kBq, listed as [225Ac]Ac-PSMA-617): 2
- Blood smear, Notes (Day 10, mouse M1): More neutrophilic blasts (Metamyelocyte)
- Bone marrow % E (Day 10, mouse M1): 50%
- Bone marrow % M (Day 10, mouse M1): 50%
- Blood smear, Notes (Day 10, mouse M2): More neutrophilic blasts (Metamyelocyte)
- Bone marrow % E (Day 10, mouse M2): 60%
- Bone marrow % M (Day 10, mouse M2): 40%
- Bone marrow % E (Day 10, mouse M3): 20%
- Bone marrow % M (Day 10, mouse M3): 80%
- Bone marrow smear, Notes (Day 10, mouse M3): More blasts, neutrophilic row
- Bone marrow % E (Day 10, mouse M4): 30%
- Bone marrow % M (Day 10, mouse M4): 70%
- Bone marrow smear, Notes (Day 10, mouse M4): More blasts, neutrophilic row
- Bone marrow % E (Day 10, mouse M5): 30%
- Bone marrow % M (Day 10, mouse M5): 70%
- Bone marrow smear, Notes (Day 10, mouse M5): More blasts, neutrophilic row
- Albumin concentration in blood plasma (Day 28, 30 kBq): 23 g/L
- Blood urea nitrogen (Day 28, 30 kBq): 8.7 ± 1.1 mmol/L
- Erythrocyte counts (Day 28, 30 kBq): 8.7 ± 0.3 × 10^12/L
- Hematocrit (Day 28, 30 kBq): 43 ± 3%
- Hemoglobin (Day 28, 30 kBq): 11.3 ± 0.5 g/dL
- Kidneys: Hyperplasia/hypertrophy, tubular, incidence (Day 28, 30 kBq): 1
- Kidneys: Hyperplasia/hypertrophy, tubular, score average (Day 28, 30 kBq): 1.0
- Kidneys: Hypertrophy/hyperplasia, tubular with ectasia, incidence (Day 28, 30 kBq): 0
- Kidneys: Hypertrophy/hyperplasia, tubular with ectasia, score average (Day 28, 30 kBq): 0.0
- Kidneys: Inflammatory cells, interstitium, incidence (Day 28, 30 kBq): 0
- Kidneys: Inflammatory cells, interstitium, score average (Day 28, 30 kBq): 0.0
- Kidneys: Inflammatory cells, pelvis, incidence (Day 28, 30 kBq): 0
- Kidneys: Inflammatory cells, pelvis, score average (Day 28, 30 kBq): 0.0
- Kidneys: Mineralization, papilla, incidence (Day 28, 30 kBq): 1
- Kidneys: Mineralization, papilla, score average (Day 28, 30 kBq): 1.0
- Kidneys: Tubular basophilia, incidence (Day 28, 30 kBq): 1
- Kidneys: Tubular basophilia, score average (Day 28, 30 kBq): 1.0
- Salivary glands: Ductal hyperplasia with inflammatory cells, incidence (Day 28, 30 kBq): 0
- Salivary glands: Ductal hyperplasia with inflammatory cells, score average (Day 28, 30 kBq): 0.0
- Salivary glands: Hypertrophy acinar, sublingual, incidence (Day 28, 30 kBq): 0
- Salivary glands: Hypertrophy acinar, sublingual, score average (Day 28, 30 kBq): 0.0
- Salivary glands: Mononuclear cell foci, incidence (Day 28, 30 kBq): 1
- Salivary glands: Mononuclear cell foci, score average (Day 28, 30 kBq): 1.0
- Salivary glands: Necrosis, multifocal, serous acinar cells, incidence (Day 28, 30 kBq): all five
- Salivary glands: Necrosis, multifocal, serous acinar cells, score average (Day 28, 30 kBq): 1.8
- Salivary glands: Vacuolation, incidence (Day 28, 30 kBq): 0
- Salivary glands: Vacuolation, score average (Day 28, 30 kBq): 0.0
- Spleen: Extramedullary hematopoiesis, incidence (Day 28, 30 kBq): 5
- Spleen: Extramedullary hematopoiesis, score average (Day 28, 30 kBq): 1.8
- Spleen: Hyperplasia, lymphoid, incidence (Day 28, 30 kBq): 5
- Spleen: Hyperplasia, lymphoid, score average (Day 28, 30 kBq): 1.0
- Spleen: Pigment, incidence (Day 28, 30 kBq): 5
- Spleen: Pigment, score average (Day 28, 30 kBq): 1.8
- Salivary glands: Necrosis, multifocal, serous acinar cells, incidence (Day 28, 30 kBq, listed as [225Ac]Ac-PSMA-617): 5
- Bone marrow % E (Day 28, mouse M1): 50%
- Bone marrow % M (Day 28, mouse M1): 50%
- Bone marrow % E (Day 28, mouse M2): 40%
- Bone marrow % M (Day 28, mouse M2): 60%
- Bone marrow % E (Day 28, mouse M3): 40%
- Bone marrow % M (Day 28, mouse M3): 60%
- Bone marrow % E (Day 28, mouse M4): 50%
- Bone marrow % M (Day 28, mouse M4): 50%
- Bone marrow % E (Day 28, mouse M5): 40%
- Bone marrow % M (Day 28, mouse M5): 60%
- Kidneys: Hyperplasia/hypertrophy, tubular, incidence (Day 56, 30 kBq): 1
- Kidneys: Hyperplasia/hypertrophy, tubular, score average (Day 56, 30 kBq): 1.0
- Kidneys: Hypertrophy/hyperplasia, tubular with ectasia, incidence (Day 56, 30 kBq): 0
- Kidneys: Hypertrophy/hyperplasia, tubular with ectasia, score average (Day 56, 30 kBq): 0.0
- Kidneys: Inflammatory cells, interstitium, incidence (Day 56, 30 kBq): 0
- Kidneys: Inflammatory cells, interstitium, score average (Day 56, 30 kBq): 0.0
- Kidneys: Inflammatory cells, pelvis, incidence (Day 56, 30 kBq): 0
- Kidneys: Inflammatory cells, pelvis, score average (Day 56, 30 kBq): 0.0
- Kidneys: Mineralization, papilla, incidence (Day 56, 30 kBq): 0
- Kidneys: Mineralization, papilla, score average (Day 56, 30 kBq): 0.0
- Kidneys: Tubular basophilia, incidence (Day 56, 30 kBq): 1
- Kidneys: Tubular basophilia, score average (Day 56, 30 kBq): 1.0
- Salivary glands: Ductal hyperplasia with inflammatory cells, incidence (Day 56, 30 kBq): 0
- Salivary glands: Ductal hyperplasia with inflammatory cells, score average (Day 56, 30 kBq): 0.0
- Salivary glands: Hypertrophy acinar, sublingual, incidence (Day 56, 30 kBq): 0
- Salivary glands: Hypertrophy acinar, sublingual, score average (Day 56, 30 kBq): 0.0
- Salivary glands: Mononuclear cell foci, incidence (Day 56, 30 kBq): 2
- Salivary glands: Mononuclear cell foci, score average (Day 56, 30 kBq): 1.0
- Salivary glands: Necrosis, multifocal, serous acinar cells, incidence (Day 56, 30 kBq): 0
- Salivary glands: Necrosis, multifocal, serous acinar cells, score average (Day 56, 30 kBq): 0.0
- Salivary glands: Vacuolation, incidence (Day 56, 30 kBq): 0
- Salivary glands: Vacuolation, score average (Day 56, 30 kBq): 0.0
- Spleen: Extramedullary hematopoiesis, incidence (Day 56, 30 kBq): 5
- Spleen: Extramedullary hematopoiesis, score average (Day 56, 30 kBq): 1.4
- Spleen: Hyperplasia, lymphoid, incidence (Day 56, 30 kBq): 0
- Spleen: Hyperplasia, lymphoid, score average (Day 56, 30 kBq): 0.0
- Spleen: Pigment, incidence (Day 56, 30 kBq): 5
- Spleen: Pigment, score average (Day 56, 30 kBq): 2.0
- Bone marrow % E (Day 56, mouse M1): 30%
- Bone marrow % M (Day 56, mouse M1): 70%
- Bone marrow % E (Day 56, mouse M2): 40%
- Bone marrow % M (Day 56, mouse M2): 60%
- Bone marrow % E (Day 56, mouse M3): 30%
- Bone marrow % M (Day 56, mouse M3): 70%
- Bone marrow % E (Day 56, mouse M4): 40%
- Bone marrow % M (Day 56, mouse M4): 60%
